# Data from publication PMC7689490, “Designed CXCR4 mimic acts as a soluble chemokine receptor that blocks atherogenic inflammation by agonist-specific targeting” (Nature Communications, 2020).
# Values joined by “and” are separate entries in the source; they are usually repeats but may differ in a detail not shown here. Equal entries are not always repeated.
# How the values were obtained:
# [1] = tested on: human monocyte-derived macrophages; test: LDLR and CXCR4 cell surface levels in macrophages (flow cytometry, Reviewer-only Figure 4); type: cell-based
# Protocol: crosstalk, or might even imply that CXCR4 and LDLR colocalize/complex and are subjected to a joint internalization event.
# We feel that these studies warrant further in-depth (and mechanistic) exploration, which are […]
# in the manuscript. We have therefore prepared them as Reviewer-only Figure 4 below.
# Supplementary part of the manuscript, we are happy to do so. […]
# expression and endocytosis in human monocyte-derived macrophages. LDLR and CXCR4 cell surface levels were measured by flow cytometry. Experiments were performed in the presence of LDL and the […]
# containing 100µg/mL penicillin, 100 µg/mL streptomycin, and 0.2% BSA) for 15 min at 37°C and subsequently exposed to LDL (25 µg/mL) for 15 min. After washing with PBS, cells were collected and incubated with anti-hLDLR-APC (1:100, R&D Systems, FAB2148A) and anti-CXCR4-PE (1:100, R&D Systems, FAB170P) at 4°C for 1 h. MIF stimulation enhances LDL-triggered internalization of LDLR and […]
# The data shown are from one of two experiments
# MIF dependent adhesion can be blocked, it is unclear whether MIF dependent adhesion to TNF-activated (since this stimulus seems relevant in in vivo settings) endothelial cells can be […]
# Response: Thank you for this important point. […]
# experiment and now include static adhesion data using TNF-primed endothelial cells in the […]
# [2] = tested on: human CXCR4; test: MIF-triggered CXCR4-specific signaling in yeast (lacZ read-out); type: cell-based; settings: co-incubation with MIF
# Protocol: Briefly, yeast transformants stably expressing human CXCR4 were grown overnight at 30 °C in yeast nitrogen base selective medium (Formedium, UK). Cells were diluted to an OD600 of 0.2 and grown to an OD600 of 0.3–0.6. […] OD600 was measured and activation of CXCR4 signaling quantified by β-galactosidase activity using a commercial BetaGlo Kit (Promega, Mannheim, Germany).
# [3] = tested on: carotid arteries of Apoe−/− mice; test: Leukocyte adhesion in ex vivo mounted atherosclerotic carotid arteries under flow (MPM); parameters: species or system mouse
# Protocol: Monocyte adhesion experiments in atherosclerotic carotid arteries under physiological flow conditions ex vivo have been established[14],[75] and were performed by a slight modification of this procedure. Briefly, seven-week-old Apoe^−/− mice were fed a Western-type HFD (0.2% cholesterol) for 12 weeks. […] On day 3, arteries were prepared and mounted into an arteriograph chamber. […] Mouse leukocytes isolated from the bone marrow of msR4M-L1- or vehicle-treated atherogenic Apoe^−/− mice were stained with fluorescent Green CMFDA or Red CMPTX (Thermo Fisher Scientific). […] The red- and green-stained cell pools were mixed at a 1:1 ratio and 3 × 10^6 cells in 6 mL perfused into the artery of msR4M-L1- or vehicle-treated mice, respectively. Arteries were scanned by MPM using a multispectral TCS SP8 DIVE instrument with filter-free 4TUNE NDD detection module (Leica) and the number of adherent and transmigrated leukocytes determined by scanning multiphoton excitation. Vessel structure (and plaques) were visualized by second harmonic generation (SHG). Image acquisition, visualization, and processing was performed using the LAS X SP8 software package with LAS X 3D visualization and analysis (Leica) and LAS X HyVolution 2 packages from Leica/SVI Huygens, (Laapersveld, NL).
# [4] = in vivo; settings: C57BL/6, mouse, ip, 50 ug per mouse
# Protocol: Plasma was immediately separated by centrifugation at 3000 rpm for 10 min at 4 °C, and placed on ice protected from light. Plasma aliquots were diluted (1:1) with SDS-PAGE sample buffer, boiled, analyzed in 10–20% Tricine SDS-PAGE gels, and red fluorescent bands imaged by Odyssey® Fc imager.
compound,measurement,setting,value
"CC[C@H](C)[C@H](NC(=O)[C@H](Cc1ccc(O)cc1)NC(=O)[C@H](CCCNC(=N)N)NC(=O)[C@H](CC(=O)O)NC(=O)CCCCCCCCCCCNC(=O)CCCCCNC(=O)[C@H](CCCCN)NC(=O)[C@H](CS)NC(=O)[C@H](CC(C)C)NC(=O)[C@H](Cc1ccccc1)NC(=O)[C@H](CC(N)=O)NC(=O)CNC(=O)[C@H](Cc1ccccc1)NC(=O)[C@H](Cc1ccc(O)cc1)NC(=O)[C@H](Cc1c[nH]c2ccccc12)NC(=O)[C@H](CC(N)=O)NC(=O)[C@H](C)NC(=O)[C@@H](NC(=O)[C@H](C)NC(=O)[C@@H](N)CC(=O)O)C(C)C)C(=O)N[C@@H](CS)C(=O)N[C@@H](CC(=O)O)C(=O)N[C@@H](CCCNC(=N)N)C(=O)N[C@@H](Cc1ccccc1)C(=O)N[C@@H](Cc1ccc(O)cc1)C(=O)N1CCC[C@H]1C(=O)N[C@@H](CC(N)=O)C(=O)N[C@@H](CC(=O)O)C(=O)N[C@@H](CC(C)C)C(=O)N[C@@H](Cc1c[nH]c2ccccc12)C(=O)N[C@H](C(N)=O)C(C)C [msR4M-L1, CXCR4-ECL1[97–110]-6-Ahx-12-Ado-ECL2[182–196]]","LDLR cell surface level (Q3), MIF + msR4M-L1","[1]; 80 nM MIF, 400 nM msR4M-L1, LDL 25 µg/mL, without MIF 15.1%, MIF alone 8.99%, one of two experiments",12.6%
same,"CXCR4 cell surface level (Q3), MIF + msR4M-L1","[1]; as E143, without MIF 39%, MIF alone […]",48.7%
same,effect on MIF-triggered CXCR4 reporter signal,[2],blocked the β-galactosidase reporter signal in a concentration-dependent manner
same,number of luminally adhering leukocytes,"[3]; msR4M-L1 100 µg once daily for 3 days before vessel harvest, 5–6 carotid arteries per group",significantly reduced
same,"Fig. 5l, leukocyte adhesion in ex vivo mounted carotid arteries","[3]; msR4M-L1 group, individual values, n = 6",12 and 45 and 36 and 16 and 32
same,level at time molar,[4],20 to 50 nM
